The results in this text go back to patent publication US9399790B2, “Stable NAD/NADH derivatives” (Roche Diabetes Care, Inc., priority 2006, dated 2016).

The target in series [1] is T1, glucose dehydrogenase (GlucDH) (Bacillus subtilis, UniProt P12310). Briefly: Glucose dehydrogenase (GlucDH) activity assay with NAD derivative as cofactor. The class given is biochemical. To be noted: for U/ml: GlucDH 0.002 mg/ml (NAD). Here is the method: In order to examine the role of pNAD as a cofactor for glucose dehydrogenase (GlucDH), a glucoseDH activity assay in 0.1 M Tris/0.2 M NaCl (pH 8.5) buffer was carried out. The concentration of glucose was 80 mM. pNAD and NAD concentrations of 0.05-0.5 mM were used. To this, 10 mg/ml (pNAD) or 0.002 mg/ml (NAD) [83 or 0.017 μM respectively] GlucDH was added. The assay was carried out at room temperature and the enzymatic reaction was monitored by recording absorption spectra at regular time intervals. The values shown in table 1 refer to an absorption measurement after 4 min.
T1 sequence (P12310 whole entry): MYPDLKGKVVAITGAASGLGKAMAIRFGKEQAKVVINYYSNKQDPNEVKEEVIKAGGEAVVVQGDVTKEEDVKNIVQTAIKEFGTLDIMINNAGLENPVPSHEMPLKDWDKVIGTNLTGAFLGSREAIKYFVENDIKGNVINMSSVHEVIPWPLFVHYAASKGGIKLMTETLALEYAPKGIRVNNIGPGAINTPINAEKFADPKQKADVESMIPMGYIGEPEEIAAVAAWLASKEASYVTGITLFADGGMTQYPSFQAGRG
A glucose dehydrogenase activity assay for cNAD compared to NAD was carried out as described under B) for pNAD. For this purpose glucose dehydrogenase concentrations of […] and 0.002 mg/ml (NAD) [0.83 and 0.017 μM respectively] were used.

Series [2] is described as follows: Examination of the stability of carbaNAD (stressing in solution, HPLC). The class given is physicochemical. The note with it: 10 mM solution, pH 8, 0.1 M potassium phosphate buffer, 8° C. and 37° C., after 0.25, 75 and 175 h. Here is the method:
A 10 mM solution of carbNAD and/or NAD is stressed at pH 8 in 0.1 M potassium phosphate buffer. The content is determined by means of HPLC chromatography after 0.25, 75 and 175 h.
Buffer A: 100 mM KHPO4+10 mM tetrabutylammonium hydrogen sulfate, pH 6.9 buffer B: buffer A+acetonitrile 1:1 flow rate 1.0 ml/min detection: 254 nm […]
gradient: in 40 min to 35% buffer B, hold for 2 min and then change to 0% buffer A within 3 min.

Series [3] addresses T1, glucose dehydrogenase (GlucDH). Briefly: Glucose dehydrogenase (GlucDH) activity assay with NAD derivative as cofactor. The class given is biochemical. To be noted: 0.05 mM (p)NAD; 80 mM glucose; 0.1 M Tris/0.2 M NaCl pH 8.5; room temperature; absorption after 4 min; GlucDH 0.02 mg/ml (NAD), 10 mg/ml (pNAD).
Series [4] in a line: Investigation of the stability of pNAD (incubation at 50° C., HPLC). To be noted: 0.15 M KPO4, 1 M NaCl buffer (pH 7.0). The class given is physicochemical. The method, then: In order to examine the stability of pNAD compared to NAD, the same amounts of NAD and pNAD were each taken up in 0.15 M KPO4, 1 M NaCl buffer (pH 7.0) and incubated at 50° C. The decomposition of NAD and/or pNAD were monitored by HPLC.

Where [5] appears, read: 0.05 mM (c)NAD, relative to NAD = 100.
[6] abbreviates: 0.05 mM (p)NAD, relative to NAD = 100, 80 mM glucose, pH 8.5, after 4 min.
[7] abbreviates: 0.1 mM (c)NAD, relative to NAD = 100.
The mark [8] stands for this setting: 0.4 mM (p)NAD, relative to NAD = 100, 80 mM glucose, pH 8.5, after 4 min.

In the case of `NC(=O)c1ccc[n+]([C@@H]2O[C@H](COP(=O)([O-])OP(=O)(O)OC[C@H]3O[C@@H](n4cnc5c(N)ncnc54)[C@H](O)[C@@H]3O)[C@@H](O)[C@H]2O)c1` [NAD, nicotinamide adenine dinucleotide, reference compound], the activity at 50 µM in series [1] (setting [5]) and in series [1] (setting [6]) was 100% throughout. For the same compound, the activity at 100 µM in series [1] (setting [7]) amounted to 100%. The compound also yielded an activity at 400 µM in series [1] (setting [8]) of 100%.

For the compound `NC(=O)c1ccc[n+]([C@@H]2C[C@H](COP(=O)([O-])OP(=O)(O)OC[C@H]3O[C@@H](n4cnc5c(N)ncnc54)[C@H](O)[C@@H]3O)[C@@H](O)[C@H]2O)c1` [cNAD, carbaNAD], the U/ml in series [1] (0.05 mM (c)NAD, assay as for pNAD, 0.1 mg/ml (cNAD)) is given as 2.7 U/ml; in series [1] (0.1 mM (c)NAD, assay as for pNAD, 0.1 mg/ml (cNAD)), 5.3 U/ml. In addition, the “% activity” value in series [1] (setting [5]) is 0.63%; in series [1] (setting [7]), 0.95%. Also, the “stability (occurrence of decomposition products, HPLC area percentages)” value in series [2] is reported as “very stable compared to NAD”.

Compound `NC(=O)c1ccc[n+]([C@@H]2CN[C@H](COP(=O)([O-])OP(=O)(O)OC[C@H]3O[C@@H](n4cnc5c(N)ncnc54)[C@H](O)[C@@H]3O)C2)c1` [pNAD, Pyrrolidinyl-NAD] yielded an activity at 50 µM in series [1] (setting [6]) of 3e-05%. The U/ml was found to be 0.0024 U/ml in series [1] (0.4 mM (p)NAD, 80 mM glucose, 0.1 M Tris/0.2 M NaCl pH 8.5, room temperature, absorption after 4 min, 10 mg/ml (pNAD)) and 0.00017 U/ml in series [3]. This compound also gave an activity at 400 µM in series [1] (setting [8]) of 0.00015%. The “stability (percentage areas of (p)NAD compared to time zero, HPLC)” value in series [4] is given as “very stable compared to NAD”.
